Data taken from patent publication US6664398B2, “Derivatives of erythromycin, their preparation process and their use as medicaments” (Aventis Pharma S.A., priority 1999, dated 2003).

Columns and labels:
Assay type in all cases: cell-based
S. faecium 02D3HT1 = assay: Method of dilutions in liquid medium (M.I.C.); details: reading after 24 hours, 37° C.
Protocol: (§1) Method of dilutions in liquid medium A series of tubes is prepared in which the same quantity of nutritive sterile medium is distributed. Increasing quantities of the product to be studied are distributed into each tube, then each tube is sown with a bacterial strain. After incubation for twenty-four hours in a heating chamber at 37° C., the growth inhibition is evaluated by transillumination, which allows the minimal inhibitory concentrations (M.I.C.) to be determined, expressed in micrograms/cm^3. The following results were obtained with the product of Example 1: (reading after 24 hours)

S. pneumoniae 030PW23c = assay: Method of dilutions in liquid medium (M.I.C.); details: reading after 24 hours, 37° C.
Protocol: as §1

S. agalactiae 02B1SJ1c = assay: Method of dilutions in liquid medium (M.I.C.); details: reading after 24 hours, 37° C.
Protocol: as §1

S. pneumoniae 030CR18c = assay: Method of dilutions in liquid medium (M.I.C.); details: reading after 24 hours, 37° C.
Protocol: as §1

S. faecalis 02D2UC1 = assay: Method of dilutions in liquid medium (M.I.C.); details: reading after 24 hours, 37° C.
Protocol: as §1

S. sanguis 02SGr10i = assay: Method of dilutions in liquid medium (M.I.C.); details: reading after 24 hours, 37° C.
Protocol: as §1

S. aureus 011UC4 = assay: Method of dilutions in liquid medium (M.I.C.); details: reading after 24 hours, 37° C.
Protocol: as §1

S. pneumoniae 030SJ1c = assay: Method of dilutions in liquid medium (M.I.C.); details: reading after 24 hours, 37° C.
Protocol: as §1

S. pneumoniae 030RO1i = assay: Method of dilutions in liquid medium (M.I.C.); details: reading after 24 hours, 37° C.
Protocol: as §1

S. pneumoniae 030GR20 = assay: Method of dilutions in liquid medium (M.I.C.); details: reading after 24 hours, 37° C.
Protocol: as §1

S. faecalis 02D2DU15c = assay: Method of dilutions in liquid medium (M.I.C.); details: reading after 24 hours, 37° C.
Protocol: as §1

S. mitis 02MitCB1 = assay: Method of dilutions in liquid medium (M.I.C.); details: reading after 24 hours, 37° C.
Protocol: as §1

[1] = test system: Streptococcus gr.G 02GOGR5; assay: Method of dilutions in liquid medium (M.I.C.); details: reading after 24 hours, 37° C.
Protocol: as §1

S. pneumoniae 032UC1 = assay: Method of dilutions in liquid medium (M.I.C.); details: reading after 24 hours, 37° C.
Protocol: as §1

S. agalactiae 02B1HT1 = assay: Method of dilutions in liquid medium (M.I.C.); details: reading after 24 hours, 37° C.
Protocol: as §1

S. aureus 011GO25i = assay: Method of dilutions in liquid medium (M.I.C.); details: reading after 24 hours, 37° C.
Protocol: as §1

S. pyogenes 02A1UC1 = assay: Method of dilutions in liquid medium (M.I.C.); details: reading after 24 hours, 37° C.
Protocol: as §1

S. epidermidis 012GO11i = assay: Method of dilutions in liquid medium (M.I.C.); details: reading after 24 hours, 37° C.
Protocol: as §1

S. pneumoniae 030SJ5i = assay: Method of dilutions in liquid medium (M.I.C.); details: reading after 24 hours, 37° C.
Protocol: as §1

S. mitis 02MitGR16i = assay: Method of dilutions in liquid medium (M.I.C.); details: reading after 24 hours, 37° C.
Protocol: as §1

[2] = test system: Haemophilus Influenzae 351HT3, 351CB12, 351CA1 and 351GR6; assay: Activity on gram-negative bacterial strains
Protocol: as §1

For `CC[C@H]1OC(=O)[C@H](C)C(=O)[C@H](C)[C@@H](O[C@@H]2O[C@H](C)C[C@H](N(C)C)[C@H]2O)[C@](C)(OC)C[C@@H](C)C(=O)[C@H](C)[C@H]2N(CCCCn3ccc(-c4cccnc4)n3)C(=O)O[C@]12C` [Example 1, 11,12-dideoxy-3-de[(2,6-dideoxy-3-C-methyl-3-O-methyl-α-L-ribohexopyranosyl)oxy]-6-O-methyl-3-oxo-12,11-[oxycarbonyl[[4-[3-(3-pyridinyl)-1H-pyrazol-1-yl]butyl]imino]]-erythromycin], the “minimal inhibitory concentrations (M.I.C.)” value (S. faecium 02D3HT1) was 0.02 micrograms/cm^3, the “minimal inhibitory concentrations (M.I.C.)” value (S. pneumoniae 030PW23c) was 0.02 micrograms/cm^3 and the “minimal inhibitory concentrations (M.I.C.)” value (S. agalactiae 02B1SJ1c) was 0.050 micrograms/cm^3. For the same compound, the “minimal inhibitory concentrations (M.I.C.)” value (S. pneumoniae 030CR18c) was 0.300 micrograms/cm^3, the “minimal inhibitory concentrations (M.I.C.)” value (S. faecalis 02D2UC1) was 0.02 micrograms/cm^3 and the “minimal inhibitory concentrations (M.I.C.)” value (S. sanguis 02SGr10i) was 0.02 micrograms/cm^3. For the same compound, the “minimal inhibitory concentrations (M.I.C.)” value (S. aureus 011UC4; S. aureus 011UC4+ 50% serum) was 0.600 micrograms/cm^3, the “minimal inhibitory concentrations (M.I.C.)” value (S. aureus 011UC4; S. aureus 011UC4) was 0.040 micrograms/cm^3 and the “minimal inhibitory concentrations (M.I.C.)” value (S. pneumoniae 030SJ1c) was 0.150 micrograms/cm^3. The “minimal inhibitory concentrations (M.I.C.)” value (S. pneumoniae 030RO1i) was 0.150 micrograms/cm^3, the “minimal inhibitory concentrations (M.I.C.)” value (S. pneumoniae 030GR20) was 0.02 micrograms/cm^3 and the “minimal inhibitory concentrations (M.I.C.)” value (S. faecalis 02D2DU15c) was 5.000 micrograms/cm^3. The “minimal inhibitory concentrations (M.I.C.)” value (S. mitis 02MitCB1) was 0.02 micrograms/cm^3, the “minimal inhibitory concentrations (M.I.C.)” value [1] was 0.02 micrograms/cm^3 and the “minimal inhibitory concentrations (M.I.C.)” value (S. pneumoniae 032UC1) was 0.02 micrograms/cm^3. The “minimal inhibitory concentrations (M.I.C.)” value (S. agalactiae 02B1HT1) was 0.02 micrograms/cm^3, the “minimal inhibitory concentrations (M.I.C.)” value (S. aureus 011GO25i) was 0.600 micrograms/cm^3 and the “minimal inhibitory concentrations (M.I.C.)” value (S. pyogenes 02A1UC1) was 0.02 micrograms/cm^3. The “minimal inhibitory concentrations (M.I.C.)” value (S. epidermidis 012GO11i) was 0.040 micrograms/cm^3, the “minimal inhibitory concentrations (M.I.C.)” value (S. pneumoniae 030SJ5i) was 0.040 micrograms/cm^3 and the “minimal inhibitory concentrations (M.I.C.)” value (S. mitis 02MitGR16i) was 0.02 micrograms/cm^3. For the same compound, the “activity on gram-negative bacterial strains” value [2] was “useful activity”.
